Literature values, collected in patent publication US20210315915A1, “PHARMACEUTICAL COMPOSITIONS OF RIBAVIRIN” (GlaxoSmithKline Intellectual Property (No.2) Limited, priority 2015, published 2021).

What was measured:
[1] = FDA approved labeling of Rebetol
[2] = crystalline white powder

multiple-dose half-life [1]: 12 days | persistence in nonplasma compartments [1]: ≤ 6 months | solubility in ethanol (96%) [2]: slightly soluble | solubility in water [2]: freely soluble
SMILES: NC(=O)c1ncn([C@@H]2O[C@H](CO)[C@@H](O)[C@H]2O)n1 [ribavirin, 1-β-D-ribofuranosyl-1H-1,2,4-triazole-3-carboxamide]
